IC50 data for 32 molecules are collected here from US20230295119A1, “SUBSTITUTED PYRIDINES FOR THE TREATMENT OF INFLAMMATORY DISEASES” (GOSSAMER BIO SERVICES, INC., priority 2020, published 2023).

One assay concerns the target human JAK3 (Homo sapiens (Human), UniProt P52333). Put plainly: JAK3 TR-FRET kinase assay. The conditions noted are these: JAK3 0.0125 nM. Type of assay: biochemical.
The target of the next assay is TYK2 JH2 domain (Homo sapiens (Human), UniProt P29597). Put plainly: TYK2 JH2 NanoBRET assay. Type of assay: binding. The following applies: Table 20, read-out: TYK2 IC50. As to the method:
HEK293T cells were transfected with NanoLuc-TYK2 JH2 Fusion Vector (Promega, customized) using Trans-IT reagent (Mirus, #MIR2700) and incubated for overnight in 37° C. incubator. […] Add 85 µL of cell suspension into white, polypropylene, 96-well plates (Corning, #3600). 90 µL of cells were used for no tracer control samples. 5 µL of diluted NanoBRET K10 tracer (Promega, #CS1810C122) were added to cells to a final concentration of 0.5 µM. Test compounds were diluted into DMSO, and then phenol-free opti-MEM to 10X of final concentration. 10 µL of diluted compounds were added into each well. The cells were incubated with test compound and tracer for 2 hours. 3XNanoBRET® Nano-Glo® Substrate and Extracellular NanoLuc® Inhibitor mixture were prepared and 50 µL of the mixture were added into the wells and mixed. […] NanoBRET signal was determined by using the ratio of acceptor signal and donor signal.
On the technique in general: Bioluminescence resonance energy transfer reports proximity on the nanometre scale.

The target of another assay is human JAK1 (Homo sapiens (Human), UniProt P23458). Kind of assay: JAK1 TR-FRET kinase assay. The following applies: TR-FRET, JAK1 2.5 nM. Type of assay: biochemical. In general terms: Time-resolved FRET reads energy transfer from a long-lived donor to a nearby acceptor.
Sequence of human JAK1 (P23458 whole entry): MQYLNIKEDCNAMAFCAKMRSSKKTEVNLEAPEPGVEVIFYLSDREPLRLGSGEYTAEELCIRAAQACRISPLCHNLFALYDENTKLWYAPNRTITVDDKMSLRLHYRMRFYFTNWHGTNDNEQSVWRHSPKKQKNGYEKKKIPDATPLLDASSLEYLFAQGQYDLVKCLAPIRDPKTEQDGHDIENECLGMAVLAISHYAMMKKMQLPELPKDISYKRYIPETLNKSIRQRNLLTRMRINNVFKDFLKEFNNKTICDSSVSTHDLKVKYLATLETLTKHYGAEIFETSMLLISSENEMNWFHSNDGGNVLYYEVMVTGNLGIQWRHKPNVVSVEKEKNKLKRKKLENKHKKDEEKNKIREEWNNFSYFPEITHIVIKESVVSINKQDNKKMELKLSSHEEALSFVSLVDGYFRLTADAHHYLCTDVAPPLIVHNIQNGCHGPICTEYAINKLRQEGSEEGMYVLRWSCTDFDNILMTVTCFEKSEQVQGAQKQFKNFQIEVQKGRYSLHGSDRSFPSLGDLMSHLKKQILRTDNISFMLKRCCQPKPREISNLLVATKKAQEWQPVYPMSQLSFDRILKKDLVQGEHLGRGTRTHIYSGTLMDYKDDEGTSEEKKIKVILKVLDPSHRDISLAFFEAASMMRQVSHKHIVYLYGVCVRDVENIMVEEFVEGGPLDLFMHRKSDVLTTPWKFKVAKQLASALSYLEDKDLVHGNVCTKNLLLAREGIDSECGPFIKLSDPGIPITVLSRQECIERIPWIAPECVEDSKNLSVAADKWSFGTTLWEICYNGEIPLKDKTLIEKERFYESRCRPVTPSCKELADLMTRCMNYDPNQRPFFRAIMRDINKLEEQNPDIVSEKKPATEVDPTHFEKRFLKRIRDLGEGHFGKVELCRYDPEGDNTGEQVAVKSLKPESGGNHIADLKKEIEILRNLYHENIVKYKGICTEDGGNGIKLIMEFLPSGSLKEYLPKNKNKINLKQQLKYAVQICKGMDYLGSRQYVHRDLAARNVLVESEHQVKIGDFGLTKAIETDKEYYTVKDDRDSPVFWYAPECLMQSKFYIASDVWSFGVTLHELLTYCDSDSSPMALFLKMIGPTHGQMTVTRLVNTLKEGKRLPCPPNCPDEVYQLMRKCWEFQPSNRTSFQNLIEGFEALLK
The next assay concerns the target human JAK2 (Homo sapiens (Human), UniProt O60674). Kind of assay: JAK2 TR-FRET kinase assay. In kind it is biochemical. The conditions noted are these: JAK2 0.025 nM.

SMILES strings stand for the structures.

Sequence of TYK2 JH2 domain (P29597 589-875): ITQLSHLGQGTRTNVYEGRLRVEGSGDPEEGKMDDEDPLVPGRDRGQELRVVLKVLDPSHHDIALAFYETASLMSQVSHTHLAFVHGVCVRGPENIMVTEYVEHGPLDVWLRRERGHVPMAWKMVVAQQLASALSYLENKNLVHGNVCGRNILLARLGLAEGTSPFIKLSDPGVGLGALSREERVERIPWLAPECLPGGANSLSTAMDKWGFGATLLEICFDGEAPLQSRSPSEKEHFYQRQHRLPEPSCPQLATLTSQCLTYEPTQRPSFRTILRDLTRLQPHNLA
Sequence of human JAK3 (P52333 whole entry, the tested form may be a part): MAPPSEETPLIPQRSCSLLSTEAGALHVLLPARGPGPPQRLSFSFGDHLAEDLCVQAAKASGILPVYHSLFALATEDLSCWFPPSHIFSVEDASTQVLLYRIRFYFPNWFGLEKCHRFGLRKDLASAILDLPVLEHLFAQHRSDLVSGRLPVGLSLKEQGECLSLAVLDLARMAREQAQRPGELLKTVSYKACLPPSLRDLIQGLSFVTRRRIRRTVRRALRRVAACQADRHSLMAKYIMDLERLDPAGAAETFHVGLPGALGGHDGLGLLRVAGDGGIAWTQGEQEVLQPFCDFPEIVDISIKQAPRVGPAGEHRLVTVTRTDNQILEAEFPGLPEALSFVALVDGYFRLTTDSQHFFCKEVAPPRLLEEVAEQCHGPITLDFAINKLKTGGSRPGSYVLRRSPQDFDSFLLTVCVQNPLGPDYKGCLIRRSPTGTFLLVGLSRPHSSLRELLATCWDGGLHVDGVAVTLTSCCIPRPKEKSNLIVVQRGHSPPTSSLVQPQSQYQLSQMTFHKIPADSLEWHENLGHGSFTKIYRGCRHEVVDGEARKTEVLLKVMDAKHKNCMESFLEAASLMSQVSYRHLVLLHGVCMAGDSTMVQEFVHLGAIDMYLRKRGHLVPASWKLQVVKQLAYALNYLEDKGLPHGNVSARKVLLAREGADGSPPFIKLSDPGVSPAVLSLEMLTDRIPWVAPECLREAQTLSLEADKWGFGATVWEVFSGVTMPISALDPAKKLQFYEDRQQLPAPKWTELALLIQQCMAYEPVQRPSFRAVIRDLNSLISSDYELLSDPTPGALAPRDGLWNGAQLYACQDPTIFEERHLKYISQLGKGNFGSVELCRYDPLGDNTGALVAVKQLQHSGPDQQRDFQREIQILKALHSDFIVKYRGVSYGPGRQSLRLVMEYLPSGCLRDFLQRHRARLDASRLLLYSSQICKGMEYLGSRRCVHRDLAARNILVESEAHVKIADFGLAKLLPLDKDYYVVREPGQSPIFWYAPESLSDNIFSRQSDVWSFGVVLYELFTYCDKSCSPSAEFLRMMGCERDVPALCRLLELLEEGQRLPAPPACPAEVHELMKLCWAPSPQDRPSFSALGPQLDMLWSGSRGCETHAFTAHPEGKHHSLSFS
Sequence of human JAK2 (O60674 whole entry): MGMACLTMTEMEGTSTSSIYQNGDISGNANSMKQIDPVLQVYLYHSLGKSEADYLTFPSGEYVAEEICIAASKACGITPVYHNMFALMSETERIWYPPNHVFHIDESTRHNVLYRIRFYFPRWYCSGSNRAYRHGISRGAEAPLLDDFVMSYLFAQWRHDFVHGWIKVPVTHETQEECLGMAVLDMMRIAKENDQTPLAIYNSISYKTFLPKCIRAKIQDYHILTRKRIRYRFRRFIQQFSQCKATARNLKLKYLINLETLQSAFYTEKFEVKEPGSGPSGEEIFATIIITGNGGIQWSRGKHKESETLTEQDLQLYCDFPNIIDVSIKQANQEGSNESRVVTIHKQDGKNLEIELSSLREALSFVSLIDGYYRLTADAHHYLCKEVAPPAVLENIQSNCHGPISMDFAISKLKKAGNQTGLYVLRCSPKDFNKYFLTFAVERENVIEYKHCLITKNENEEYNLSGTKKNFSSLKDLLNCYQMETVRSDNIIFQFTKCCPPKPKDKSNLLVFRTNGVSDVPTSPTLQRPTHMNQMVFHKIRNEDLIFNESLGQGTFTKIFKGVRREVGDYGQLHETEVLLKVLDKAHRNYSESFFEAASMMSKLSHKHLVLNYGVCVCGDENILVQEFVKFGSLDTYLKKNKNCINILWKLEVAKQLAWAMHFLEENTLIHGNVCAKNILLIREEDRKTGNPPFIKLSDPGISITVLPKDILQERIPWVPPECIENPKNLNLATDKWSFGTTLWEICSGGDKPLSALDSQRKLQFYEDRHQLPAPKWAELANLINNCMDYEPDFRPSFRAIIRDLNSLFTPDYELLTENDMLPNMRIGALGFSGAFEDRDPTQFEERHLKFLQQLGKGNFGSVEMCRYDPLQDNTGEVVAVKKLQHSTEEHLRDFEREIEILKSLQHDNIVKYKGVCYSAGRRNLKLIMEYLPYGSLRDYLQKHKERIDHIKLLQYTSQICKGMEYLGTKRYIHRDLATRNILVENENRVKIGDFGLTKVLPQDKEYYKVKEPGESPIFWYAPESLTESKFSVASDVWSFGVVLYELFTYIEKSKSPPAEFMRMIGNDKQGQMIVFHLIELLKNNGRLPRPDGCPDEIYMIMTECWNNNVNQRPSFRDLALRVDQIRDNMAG

In general, IC50 refers to the concentration needed to halve the response being measured. For the molecule `CCC(=O)c1cnc(Nc2ccc(CCNC)cn2)cc1Nc1cccc(-c2ncn(C)n2)c1OC` [Compound 11B], the IC50 against human JAK3 is at least 500 nM; at TYK2 JH2 domain it was 5 to 50 nM; against human JAK1 it was at least 500 nM; against human JAK2 it was at least 500 nM.
`COc1c(Nc2cc(Nc3ccc(OC(CO)CO)cn3)ncc2C(=O)C2CC2)cccc1-c1ncn(C)n1` [Compound 18K]: the IC50 on human JAK3 is at least 500 nM; at TYK2 JH2 domain, 5 to 50 nM; against human JAK1, at least 500 nM; against human JAK2, at least 500 nM.
Turning to `CCC(=O)c1cnc(Nc2ccc(C(C)N)nn2)cc1Nc1cccc(-c2ncn(C)n2)c1OC` (centres unmarked) [Compound 9III], the IC50 against human JAK3 was at least 500 nM; at TYK2 JH2 domain, 5 to 50 nM; at human JAK1 it was at least 500 nM; at human JAK2, at least 500 nM.
As for `CCC(=O)c1cnc(Nc2cnc(OCCN3CC(F)C3)cn2)cc1Nc1cccc(-c2ncn(C)n2)c1OC` [Compound 18PP], the IC50 is at least 500 nM against human JAK3, 5 to 50 nM on TYK2 JH2 domain, at least 500 nM against human JAK1 and at least 500 nM on human JAK2.
As for `CCC(=O)c1cnc(Nc2ccc(-n3ccncc3=O)cn2)cc1Nc1cccc(-c2ncn(C)n2)c1OC` [Compound 15V], the IC50 is at least 500 nM against human JAK3, under 5 nM on TYK2 JH2 domain, at least 500 nM against human JAK1 and at least 500 nM on human JAK2.
As to `CCC(=O)c1cnc(Nc2ccn(CC3CN(C)C3)n2)cc1Nc1cccc(-c2ncn(C)n2)c1OC` [Compound 21X], the half-inhibitory concentration (IC50) was at least 500 nM at human JAK3, 50 to 500 nM on TYK2 JH2 domain, at least 500 nM at human JAK1 and at least 500 nM on human JAK2.
Regarding `CCC(=O)c1cnc(Nc2ncc(S(C)(=O)=O)cc2F)cc1Nc1cccc(-c2ncn(C)n2)c1OC` [Compound 13Z], the IC50 against human JAK3 is at least 500 nM; on TYK2 JH2 domain it was 50 to 500 nM; against human JAK1 it was at least 500 nM; at human JAK2 it was at least 500 nM.
For `CCC(=O)c1cnc(Nc2ccc(CN(C)C3COC3)cn2)cc1Nc1cccc(-c2ncn(C)n2)c1OC` [Compound 9DDD], the IC50 against human JAK3 is at least 500 nM; at TYK2 JH2 domain, under 5 nM; against human JAK1, at least 500 nM; at human JAK2, at least 500 nM.
Regarding `CCC(=O)c1cnc(Nc2cccc(C(=O)NC)n2)cc1Nc1cccc(-c2ncn(C)n2)c1OC` [Compound 8K], the IC50 on human JAK3 was at least 500 nM; on TYK2 JH2 domain, under 5 nM; against human JAK1 it was at least 500 nM; against human JAK2, at least 500 nM.
As for `CCC(=O)c1cnc(Nc2cnc(CCN(C)C)cn2)cc1Nc1cccc(-c2ncn(C)n2)c1OC` [Compound 11I], the IC50 is at least 500 nM against human JAK3, 5 to 50 nM on TYK2 JH2 domain, at least 500 nM against human JAK1 and at least 500 nM against human JAK2.
Regarding `CCC(=O)c1cnc(Nc2ccc([C@H](C)N3CC[C@@H](O)C3)cn2)cc1Nc1cccc(-c2ncn(C)n2)c1OC` [Compound 9NN], the IC50 at human JAK3 was at least 500 nM; at TYK2 JH2 domain, under 5 nM; against human JAK1 it was at least 500 nM; on human JAK2, at least 500 nM.
`CCC(=O)c1cnc(Nc2ccc(-c3cn(C)cn3)cn2)cc1Nc1cccc(-c2ncn(C)n2)c1OC` [Compound 15B]: the IC50 is 50 to 500 nM against human JAK3, under 5 nM on TYK2 JH2 domain, at least 500 nM against human JAK1 and at least 500 nM at human JAK2.
Consider `CCC(=O)c1cnc(Nc2ccc(CN(C)CC(F)(F)F)cn2)cc1Nc1cccc(-c2ncn(C)n2)c1OC` [Compound 9X], for which the IC50 against human JAK3 is at least 500 nM; at TYK2 JH2 domain it was 5 to 50 nM; against human JAK1, at least 500 nM; against human JAK2, at least 500 nM.
With `CCC(=O)c1cnc(Nc2ccn(CC3COC3)n2)cc1Nc1cccc(-c2ncn(C)n2)c1OC` [Compound 21R], the IC50 is 50 to 500 nM on human JAK3, 5 to 50 nM on TYK2 JH2 domain, at least 500 nM against human JAK1 and at least 500 nM against human JAK2.
On to `CCC(=O)c1cnc(Nc2ccc(C(C)N)cn2)cc1Nc1cccc(-c2ncn(C)n2)c1OC` (centres unmarked) [Compound 9G], for which the IC50 on human JAK3 is at least 500 nM; on TYK2 JH2 domain, under 5 nM; on human JAK1, at least 500 nM; at human JAK2 it was at least 500 nM.
`CCC(=O)c1cnc(Nc2ccn(CC3CCOC3)n2)cc1Nc1cccc(-c2ncn(C)n2)c1OC` (centres unmarked) [Compound 21T]: the IC50 on human JAK3 is at least 500 nM; at TYK2 JH2 domain it was 5 to 50 nM; against human JAK1 it was at least 500 nM; against human JAK2 it was at least 500 nM.
On to `CCC(=O)c1cnc(NC2=NN(C(=O)C3CC3)CC2)cc1Nc1cccc(-c2ncn(C)n2)c1OC` [Compound 26A, 1-(6-((1-(cyclopropanecarbonyl)-4,5-dihydro-1H-pyrazol-3-yl)amino)-4-((2-methoxy-3-(1-methyl-1H-1,2,4-triazol-3-yl)phenyl)amino)pyridin-3-yl)propan-1-one], for which the IC50 is at least 500 nM on human JAK3, 5 to 50 nM on TYK2 JH2 domain, at least 500 nM against human JAK1 and at least 500 nM against human JAK2.
As to `CCC(=O)c1cnc(Nc2ccc(S(=O)(=O)NC)cn2)cc1Nc1cccc(-c2ncn(C)n2)c1OC` [Compound 13C], the IC50 against human JAK3 is at least 500 nM; at TYK2 JH2 domain, 5 to 50 nM; against human JAK1, at least 500 nM; on human JAK2 it was at least 500 nM.
Take `CCC(=O)c1cnc(Nc2ccc(C3(S(C)(=O)=O)CC3)nn2)cc1Nc1cccc(-c2ncn(C)n2)c1OC` [Compound 13V]: the 50% inhibitory concentration (IC50) was at least 500 nM against human JAK3, under 5 nM at TYK2 JH2 domain, at least 500 nM at human JAK1 and at least 500 nM at human JAK2.
In the case of `CCC(=O)c1cnc(Nc2cc(C(=O)N(C)C)ccn2)cc1Nc1cccc(-c2ncn(C)n2)c1OC` [Compound 8H], the IC50 against human JAK3 is at least 500 nM; at TYK2 JH2 domain, under 5 nM; against human JAK1 it was at least 500 nM; on human JAK2, at least 500 nM.
In the case of `CCC(=O)c1cnc(Nc2cnc(C(F)(F)CN(C)C)cn2)cc1Nc1cccc(-c2ncn(C)n2)c1OC` [Compound 19C], the IC50 was at least 500 nM on human JAK3, 5 to 50 nM on TYK2 JH2 domain, at least 500 nM against human JAK1 and at least 500 nM at human JAK2.
For `CCC(=O)c1cnc(Nc2ccc([C@H](C)N3C[C@@H](O)[C@H](O)C3)cn2)cc1Nc1cccc(-c2ncn(C)n2)c1OC` [Compound 9PP], the IC50 on human JAK3 is 50 to 500 nM; at TYK2 JH2 domain, 5 to 50 nM; on human JAK1 it was at least 500 nM; against human JAK2 it was at least 500 nM.
In the case of `CCC(=O)c1cnc(Nc2cnc(O[C@H]3CCCN(C)C3)cn2)cc1Nc1cccc(-c2ncn(C)n2)c1OC` [Compound 18QQQ], the IC50 against human JAK3 was at least 500 nM; on TYK2 JH2 domain, 5 to 50 nM; at human JAK1, at least 500 nM; against human JAK2, at least 500 nM.
As for `COc1c(Nc2cc(Nc3ccc(CS(C)(=O)=O)cn3)ncc2C(=O)C2CC2)cccc1-c1ncn(C)n1` [Compound 130], the IC50 is at least 500 nM at human JAK3, under 5 nM at TYK2 JH2 domain, at least 500 nM at human JAK1 and at least 500 nM at human JAK2.
Consider `CCC(=O)c1cnc(Nc2cnc(CN(C)CC(F)(F)F)cn2)cc1Nc1cccc(-c2ncn(C)n2)c1OC` [Compound 9XXX], for which the IC50 was at least 500 nM at human JAK3, 5 to 50 nM at TYK2 JH2 domain, at least 500 nM against human JAK1 and at least 500 nM against human JAK2.
Turning to `CCC(=O)c1cnc(Nc2ccc(-n3ccnc3)cn2)cc1Nc1cccc(-c2ncn(C)n2)c1OC` [Compound 15I], the IC50 at human JAK3 was at least 500 nM; on TYK2 JH2 domain it was under 5 nM; against human JAK1 it was at least 500 nM; against human JAK2, at least 500 nM.
With `CCC(=O)c1cnc(Nc2ccn(-c3ccccc3)c(=O)n2)cc1Nc1cccc(-c2ncn(C)n2)c1OC` [Compound 20A, 4-((4-((2-methoxy-3-(1-methyl-1H-1,2,4-triazol-3-yl)phenyl)amino)-5-propionylpyridin-2-yl)amino)-1-phenylpyrimidin-2(1H)-one], the IC50 against human JAK3 is at least 500 nM; at TYK2 JH2 domain, under 5 nM; against human JAK1, at least 500 nM; on human JAK2, at least 500 nM.
In the case of `CCC(=O)c1cnc(Nc2ccnc(OCCO)n2)cc1Nc1cccc(-c2ncn(C)n2)c1OC` [Compound 180], the IC50 on human JAK3 was at least 500 nM; on TYK2 JH2 domain it was under 5 nM; against human JAK1, at least 500 nM; on human JAK2, at least 500 nM.
On to `CCC(=O)c1cnc(Nc2ccc(OCCCO)nn2)cc1Nc1cccc(-c2ncn(C)n2)c1OC` [Compound 18N], for which the IC50 against human JAK3 was at least 500 nM; at TYK2 JH2 domain, under 5 nM; against human JAK1, at least 500 nM; against human JAK2 it was at least 500 nM.
As for `CCC(=O)c1cnc(Nc2ccc(-c3cn(C)cn3)cn2)cc1Nc1nccc(-c2ncn(C)n2)c1OC` [Compound 15J], the IC50 was at least 500 nM against human JAK3, under 5 nM on TYK2 JH2 domain, at least 500 nM against human JAK1 and at least 500 nM against human JAK2.
With `CCC(=O)c1cnc(Nc2cc(C(F)(F)F)c(CN(C)C)cn2)cc1Nc1cccc(-c2ncn(C)n2)c1OC` [Compound 9SSSS], the IC50 against human JAK3 is at least 500 nM; at TYK2 JH2 domain, 5 to 50 nM; at human JAK1, at least 500 nM; at human JAK2, at least 500 nM.
Take `COc1c(Nc2cc(Nc3ccc(OC[C@H](O)CO)cn3)ncc2C(=O)C2CC2)cccc1-c1ncn(C)n1` [Compound 18J]: the IC50 on human JAK3 was at least 500 nM; at TYK2 JH2 domain, 5 to 50 nM; against human JAK1 it was at least 500 nM; against human JAK2, at least 500 nM.
